# From PubChem BioAssay (NCI)
# Several values for one entry are separate records, joined by “and”; a condition that tells them apart may be missing. Identical values can stand only once.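 A five-concentration, 48-hour dose response in 96-well plates underlies each endpoint, interpolated linearly between surrounding concentrations. GI50: concentration for 50% inhibition of growth. TGI: total growth inhibition.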
# Legend:
# Test in all cases: NCI tumour cell line growth inhibition, 48 h
# T-47D breast = system: T-47D breast
# SF-539 CNS = system: SF-539 CNS
# MDA-MB-231 breast = system: MDA-MB-231 breast
# NCI-H460 lung = system: NCI-H460 lung
# K-562 leukemia = system: K-562 leukemia
# HCT-116 colon = system: HCT-116 colon
# PC-3 prostate = system: PC-3 prostate
# SR leukemia = system: SR leukemia
# HOP-92 NSCLC = system: HOP-92 NSCLC
# UO-31 renal = system: UO-31 renal
# SK-MEL-2 melanoma = system: SK-MEL-2 melanoma
# HT29 colon = system: HT29 colon
# OVCAR-8 ovarian = system: OVCAR-8 ovarian
# SF-295 CNS = system: SF-295 CNS
# MALME-3M melanoma = system: MALME-3M melanoma
# SK-MEL-28 melanoma = system: SK-MEL-28 melanoma
# EKVX NSCLC = system: EKVX NSCLC
# SK-MEL-5 melanoma = system: SK-MEL-5 melanoma
# LOX IMVI melanoma = system: LOX IMVI melanoma
# 786-0 renal = system: 786-0 renal
# XF 498 CNS = system: XF 498 CNS
# OVCAR-5 ovarian = system: OVCAR-5 ovarian
# TK-10 renal = system: TK-10 renal
# DMS 114 small cell lung = system: DMS 114 small cell lung
# SNB-78 CNS = system: SNB-78 CNS
# SN12C renal = system: SN12C renal
# NCI/ADR-RES ovarian = system: NCI/ADR-RES ovarian
# OVCAR-4 ovarian = system: OVCAR-4 ovarian
# NCI-H226 lung = system: NCI-H226 lung
# HL-60(TB) leukemia = system: HL-60(TB) leukemia
# UACC-257 melanoma = system: UACC-257 melanoma
# P388 leukemia = system: P388 leukemia
# NCI-H522 lung = system: NCI-H522 lung
# COLO 205 colon = system: COLO 205 colon
# A498 renal = system: A498 renal
# SN12K1 renal = system: SN12K1 renal
# HCT-15 colon = system: HCT-15 colon
# SF-268 CNS = system: SF-268 CNS
# SK-OV-3 ovarian = system: SK-OV-3 ovarian
# IGROV1 ovarian = system: IGROV1 ovarian
# P388/ADR leukemia = system: P388/ADR leukemia
# ACHN renal = system: ACHN renal
# CCRF-CEM leukemia = system: CCRF-CEM leukemia
# M14 melanoma = system: M14 melanoma
# MOLT-4 leukemia = system: MOLT-4 leukemia
# SNB-19 CNS = system: SNB-19 CNS
# BT-549 breast = system: BT-549 breast
# UACC-62 melanoma = system: UACC-62 melanoma
# A549 NSCLC = system: A549 NSCLC
# SNB-75 CNS = system: SNB-75 CNS
# NCI-H23 lung = system: NCI-H23 lung
# OVCAR-3 ovarian = system: OVCAR-3 ovarian
# MCF7 breast = system: MCF7 breast
# DMS 273 small cell lung = system: DMS 273 small cell lung
# DU-145 prostate = system: DU-145 prostate
# CAKI-1 renal = system: CAKI-1 renal
# DLD-1 colon = system: DLD-1 colon
# HCC-2998 colon = system: HCC-2998 colon
# M19-MEL melanoma = system: M19-MEL melanoma
# HS 578T breast = system: HS 578T breast
# MDA-MB-435 = system: MDA-MB-435
# KM12 colon = system: KM12 colon
# HOP-18 NSCLC = system: HOP-18 NSCLC
# RXF 393 renal = system: RXF 393 renal
# MDA-N = system: MDA-N
# KM20L2 colon = system: KM20L2 colon
# HOP-62 NSCLC = system: HOP-62 NSCLC
# RPMI-8226 leukemia = system: RPMI-8226 leukemia
# U251 CNS = system: U251 CNS
# SW-620 colon = system: SW-620 colon
smiles,measurement,setting,value
ClCCCN1CCN(CCCl)CC1,TGI,T-47D breast,> 745 µM
same,GI50,SF-539 CNS,27.9 µM
same,TGI,SF-539 CNS,233 µM
same,TGI,MDA-MB-231 breast,> 768 µM
same,GI50,NCI-H460 lung,7.97 µM
same,TGI,NCI-H460 lung,356 µM
same,GI50,K-562 leukemia,82.9 µM
same,TGI,K-562 leukemia,> 965 µM
same,TGI,HCT-116 colon,747 µM
same,TGI,PC-3 prostate,> 1 mM
same,GI50,SR leukemia,3.44 µM
same,GI50,HOP-92 NSCLC,24.8 nM
same,GI50,UO-31 renal,56.4 µM
same,TGI,UO-31 renal,493 µM
same,TGI,SK-MEL-2 melanoma,760 µM
same,TGI,HT29 colon,> 818 µM
same,TGI,OVCAR-8 ovarian,348 µM
same,GI50,SF-295 CNS,40.8 µM
same,TGI,SF-295 CNS,456 µM
same,TGI,MALME-3M melanoma,390 µM
same,TGI,SK-MEL-28 melanoma,> 1000 µM
same,TGI,EKVX NSCLC,873 µM
same,TGI,SK-MEL-5 melanoma,647 µM
same,GI50,LOX IMVI melanoma,23.9 µM
same,TGI,LOX IMVI melanoma,608 µM
same,TGI,786-0 renal,427 µM
same,TGI,XF 498 CNS,147 µM
same,TGI,OVCAR-5 ovarian,737 µM
same,TGI,TK-10 renal,> 903 µM
same,TGI,DMS 114 small cell lung,203 µM
same,TGI,SNB-78 CNS,> 567 µM
same,GI50,SN12C renal,8.8 µM
same,TGI,SN12C renal,626 µM
same,GI50,NCI/ADR-RES ovarian,66.3 µM
same,TGI,NCI/ADR-RES ovarian,628 µM
same,TGI,OVCAR-4 ovarian,430 µM
same,TGI,NCI-H226 lung,879 µM
same,TGI,HL-60(TB) leukemia,62.3 µM and 141 µM
same,TGI,UACC-257 melanoma,> 1000 µM
same,TGI,P388 leukemia,> 840 µM
same,GI50,NCI-H522 lung,54.9 µM
same,TGI,NCI-H522 lung,356 µM
same,TGI,COLO 205 colon,468 µM
same,TGI,A498 renal,774 µM
same,TGI,SN12K1 renal,575 µM
same,TGI,HCT-15 colon,790 µM
same,GI50,SF-268 CNS,38.6 µM
same,TGI,SF-268 CNS,> 892 µM
same,TGI,SK-OV-3 ovarian,166 µM
same,TGI,IGROV1 ovarian,652 µM
same,TGI,P388/ADR leukemia,> 529 µM
same,GI50,ACHN renal,7.09 µM
same,TGI,ACHN renal,265 µM
same,GI50,CCRF-CEM leukemia,2540 nM
same,TGI,CCRF-CEM leukemia,437 µM
same,GI50,M14 melanoma,77.2 µM
same,TGI,M14 melanoma,872 µM
same,GI50,MOLT-4 leukemia,1390 nM
same,TGI,MOLT-4 leukemia,110 µM
same,GI50,SNB-19 CNS,99.1 µM
same,TGI,SNB-19 CNS,> 1000 µM
same,TGI,BT-549 breast,423 µM
same,GI50,UACC-62 melanoma,20 µM
same,TGI,UACC-62 melanoma,92 µM
same,GI50,A549 NSCLC,96.2 µM
same,TGI,A549 NSCLC,> 851 µM
same,GI50,SNB-75 CNS,43.2 µM
same,TGI,SNB-75 CNS,681 µM
same,GI50,NCI-H23 lung,19.5 µM
same,TGI,NCI-H23 lung,586 µM
same,GI50,OVCAR-3 ovarian,84.3 µM
same,TGI,OVCAR-3 ovarian,430 µM
same,TGI,MCF7 breast,736 µM
same,TGI,DMS 273 small cell lung,475 µM
same,GI50,DU-145 prostate,26.9 µM
same,TGI,DU-145 prostate,692 µM
same,TGI,CAKI-1 renal,358 µM
same,TGI,DLD-1 colon,319 µM
same,TGI,HCC-2998 colon,997 µM
same,TGI,M19-MEL melanoma,773 µM
same,TGI,HS 578T breast,885 µM
same,TGI,MDA-MB-435,> 930 µM
same,TGI,KM12 colon,> 1000 µM
same,TGI,HOP-18 NSCLC,> 1000 µM
same,TGI,RXF 393 renal,439 µM
same,TGI,MDA-N,742 µM
same,TGI,KM20L2 colon,> 1000 µM
same,TGI,HOP-62 NSCLC,168 µM
same,TGI,RPMI-8226 leukemia,743 µM
same,GI50,U251 CNS,79.6 µM
same,TGI,U251 CNS,543 µM
same,GI50,SW-620 colon,83.7 µM
same,TGI,SW-620 colon,> 873 µM
COc1cc(/C=C/c2ccc(OC)c(OC)c2)oc(=O)c1,TGI,SF-539 CNS,> 250 µM
same,TGI,NCI-H460 lung,> 250 µM
same,TGI,K-562 leukemia,> 250 µM
same,TGI,HCT-116 colon,> 250 µM
same,TGI,HOP-92 NSCLC,> 250 µM
same,TGI,UO-31 renal,> 250 µM
same,TGI,SK-MEL-2 melanoma,> 250 µM
same,TGI,HT29 colon,> 250 µM
same,TGI,OVCAR-8 ovarian,> 11.6 µM
same,TGI,SF-295 CNS,> 250 µM
same,TGI,MALME-3M melanoma,> 250 µM
same,TGI,SK-MEL-28 melanoma,> 250 µM
same,TGI,EKVX NSCLC,> 116 µM
same,TGI,SK-MEL-5 melanoma,> 250 µM
same,TGI,LOX IMVI melanoma,> 250 µM
same,TGI,XF 498 CNS,> 250 µM
same,TGI,OVCAR-5 ovarian,> 250 µM
same,TGI,DMS 114 small cell lung,> 250 µM
same,TGI,SNB-78 CNS,> 250 µM
same,TGI,SN12C renal,> 250 µM
same,TGI,NCI/ADR-RES ovarian,> 250 µM
same,TGI,OVCAR-4 ovarian,> 250 µM
same,TGI,NCI-H226 lung,> 250 µM
same,TGI,HL-60(TB) leukemia,> 184 µM
same,TGI,UACC-257 melanoma,> 250 µM
same,TGI,P388 leukemia,> 250 µM
same,TGI,NCI-H522 lung,> 250 µM
same,TGI,COLO 205 colon,> 250 µM
same,TGI,A498 renal,> 250 µM
same,TGI,SN12K1 renal,> 250 µM
same,TGI,HCT-15 colon,> 250 µM
same,TGI,SF-268 CNS,> 250 µM
same,TGI,SK-OV-3 ovarian,> 250 µM
same,TGI,IGROV1 ovarian,> 250 µM
same,TGI,P388/ADR leukemia,> 250 µM
same,TGI,CCRF-CEM leukemia,> 250 µM
same,TGI,MOLT-4 leukemia,> 250 µM
same,TGI,SNB-19 CNS,> 250 µM
same,TGI,UACC-62 melanoma,> 250 µM
same,TGI,A549 NSCLC,> 250 µM
same,TGI,SNB-75 CNS,> 227 µM
same,TGI,NCI-H23 lung,> 250 µM
same,TGI,OVCAR-3 ovarian,> 250 µM
same,TGI,MCF7 breast,> 250 µM
same,TGI,DMS 273 small cell lung,> 250 µM
same,TGI,CAKI-1 renal,> 114 µM
same,TGI,DLD-1 colon,> 250 µM
same,TGI,HCC-2998 colon,> 250 µM
same,TGI,M19-MEL melanoma,> 250 µM
same,TGI,KM12 colon,> 250 µM
same,TGI,HOP-18 NSCLC,> 250 µM
same,TGI,RXF 393 renal,> 216 µM
same,TGI,KM20L2 colon,> 250 µM
same,TGI,HOP-62 NSCLC,> 250 µM
same,TGI,RPMI-8226 leukemia,> 250 µM
same,TGI,U251 CNS,> 250 µM
same,TGI,SW-620 colon,> 250 µM
